The values that follow come from ChEMBL document CHEMBL1156232, “Non-classical antifolates. Part 2: synthesis, biological evaluation, and molecular modeling study of some new 2,6-substituted-quinazolin-4-ones” (Bioorg Med Chem, 2010).

Assay [1] relates to Pseudomonas aeruginosa. The assay is described as follows: Antibacterial activity against Pseudomonas aeruginosa at 200 ug/disk after 24 hrs by disk diffusion method. The assay is classed as functional.
The subject of assay [2] is Candida albicans. The experiment in a line: Antifungal activity against Candida albicans after 48 hrs by microdilution susceptibility method. In kind it is functional, organism-based.
In assay [3] the test system is Bacillus subtilis. The assay is described as follows: Antibacterial activity against Bacillus subtilis at 200 ug/disk after 24 hrs by disk diffusion method. The assay is classed as functional.
In assay [4] the test system is Micrococcus luteus. The experiment in a line: Antibacterial activity against Micrococcus luteus at 200 ug/disk after 24 hrs by disk diffusion method. The assay is classed as functional.
For assay [5], the system named is Escherichia coli. The experiment in a line: Antibacterial activity against Escherichia coli at 200 ug/disk after 24 hrs by disk diffusion method. The assay is classed as functional. The note with it: for zone of inhibition at 200 µg/disc: read-out: DIZ.
Assay [6] deals with Candida albicans. The experiment in a line: Antifungal activity against Candida albicans at 200 ug/disk after 48 hrs by disk diffusion method. The assay is classed as functional, organism-based.
Assay [7] has as its target T1, Dihydrofolate reductase (Bos taurus, UniProt P00376).
T1 sequence (P00376 whole entry): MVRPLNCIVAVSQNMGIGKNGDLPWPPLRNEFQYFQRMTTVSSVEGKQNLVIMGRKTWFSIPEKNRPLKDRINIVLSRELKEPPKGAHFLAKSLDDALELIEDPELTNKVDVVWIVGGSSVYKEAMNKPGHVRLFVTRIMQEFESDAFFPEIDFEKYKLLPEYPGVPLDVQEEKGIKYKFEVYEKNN
Description: Inhibition of bovine DHFR after 2 mins

Assay [8] has as its system Staphylococcus aureus. The assay is described as follows: Antibacterial activity against Staphylococcus aureus at 200 ug/disk after 24 hrs by disk diffusion method. The assay is classed as functional.
The target of assay [9] is T2, Dihydrofolate reductase (Homo sapiens, UniProt P00374).
T2 sequence (P00374 whole entry): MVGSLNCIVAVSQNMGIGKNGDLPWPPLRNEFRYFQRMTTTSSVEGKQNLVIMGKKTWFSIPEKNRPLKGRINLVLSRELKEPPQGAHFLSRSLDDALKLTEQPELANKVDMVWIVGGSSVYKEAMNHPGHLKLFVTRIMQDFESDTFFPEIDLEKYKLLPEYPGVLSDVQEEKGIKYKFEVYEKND
Description: Inhibition of human DHFR after 2 mins

pIC50: −log10 of the molar value. Calls of active or inactive are those of the source. No cut-off for these calls is given here.

As for `C=CC(=O)Nc1ccc2nc(SC)n(Cc3ccccc3)c(=O)c2c1`, the “diameter of the inhibition zone (DIZ)” value in assay [1], in assay [3], in [4], in assay [5] and in assay [8] was “inactive” each time. In addition, the outcome in assay [2] and in assay [6] was inactive. The compound also had a pIC50 in assay [7] of 4.30.

Take `Nc1ccc2nc(SC/C=C/c3ccccc3)n(Cc3ccccc3)c(=O)c2c1`: the “diameter of the inhibition zone (DIZ)” value in [1], in [3], in assay [4], in assay [5] and in [8] was “inactive” in each case. Moreover, the pIC50 is 5.22 in assay [9] and 5.10 in assay [7]. The outcome in [2] and in assay [6] was inactive.

Regarding `C=CCSc1nc2ccc(C)cc2c(=O)n1Cc1ccccc1`, the “diameter of the inhibition zone (DIZ)” value in [1], in [3], in [4], in [5] and in assay [8] was “inactive” each time. Further, the values for the pIC50 in [9] and in [7] were 5.40 and 5.70, respectively. Moreover, the outcome in [2] and in [6] was inactive.

As to `CCSc1nc2ccc(C)cc2c(=O)n1Cc1ccccc1`, the “diameter of the inhibition zone (DIZ)” value in assay [1], in [3], in [4], in assay [5] and in [8] was “inactive” throughout. Also, the result in assay [2] and in assay [6] was inactive. Further, in assay [7], the pIC50 is 4.46.

With `C=CCNc1ccc2nc(SCC=C)n(Cc3ccccc3)c(=O)c2c1`, the “diameter of the inhibition zone (DIZ)” value in assay [1], in assay [3], in assay [4], in assay [5] and in [8] was “inactive” each time. In addition, the results for the pIC50 in [9] and in [7] were 6.00 and 6.10, respectively. Further, the result in assay [2] and in [6] was inactive.

For the compound `O=c1c2cc([N+](=O)[O-])ccc2nc(SCc2ccccc2)n1Cc1ccccc1`, the “diameter of the inhibition zone (DIZ)” value in assay [1], in assay [3], in [4], in [5] and in assay [8] was “inactive” each time. Also, the result in [2] and in assay [6] was inactive. The compound further gave a pIC50 in [7] of 4.52.

With `CSc1nc2ccc(N)cc2c(=O)n1Cc1ccccc1`, the “diameter of the inhibition zone (DIZ)” value in assay [1], in assay [3], in [4], in assay [5] and in [8] was “inactive” in each case. Further, the outcome in assay [2] and in assay [6] was inactive. The compound further had a pIC50 in [7] of 5.00.

Turning to `C=CCN(CC=C)c1ccc2nc(SC)n(Cc3ccccc3)c(=O)c2c1`, the “diameter of the inhibition zone (DIZ)” value in [1], in assay [3], in assay [4], in [5] and in [8] was “inactive” each time. Also, the pIC50 in assay [9] was 6.00; in assay [7], 5.52. For the same compound, the outcome in [2] and in [6] was inactive.

In the case of `C=CCSc1nc2ccc(NC(=O)C=C)cc2c(=O)n1Cc1ccccc1`, the “diameter of the inhibition zone (DIZ)” value in [1], in assay [3], in assay [4], in assay [5] and in assay [8] was “inactive” in each case. Moreover, the outcome in assay [2] and in assay [6] was inactive. In [7], this compound showed a pIC50 of 5.00.

Turning to `CSc1nc2ccc(C)cc2c(=O)n1Cc1ccccc1`, the “diameter of the inhibition zone (DIZ)” value in assay [1], in [3], in assay [4], in [5] and in assay [8] was “inactive” each time. Also, the result in [2] and in [6] was inactive. This compound also had a pIC50 in assay [7] of 4.70.

With `C=CCSc1nc2ccc(N(CC=C)CC=C)cc2c(=O)n1Cc1ccccc1`, the “diameter of the inhibition zone (DIZ)” value in assay [1], in assay [3], in assay [4], in assay [5] and in assay [8] was “inactive” throughout. Moreover, the figures for the pIC50 in [9] and in [7] were 6.05 and 6.40, respectively. The outcome in [2] and in assay [6] was inactive.

Consider `C=CC(=O)Nc1ccc2nc(SC/C=C/c3ccccc3)n(Cc3ccccc3)c(=O)c2c1`, for which the “diameter of the inhibition zone (DIZ)” value in assay [1], in assay [3], in assay [4] and in [5] was “inactive” throughout. For the same compound, the figures for the pIC50 in [9] and in assay [7] were 5.70 and 6.00, respectively. The result in assay [2] and in assay [6] was inactive. Besides, in assay [8] (read-out: DIZ), the zone of inhibition at 200 µg/disc is 15 mm.

Turning to `C=CCN(C)c1ccc2nc(SC)n(Cc3ccccc3)c(=O)c2c1`, the “diameter of the inhibition zone (DIZ)” value in assay [1], in assay [3], in [4], in [5] and in assay [8] was “inactive” throughout. Further, the values for the pIC50 in [9] and in [7] were 5.70 and 6.00, respectively. Besides, the result in [2] and in assay [6] was inactive.

Regarding `C=CCNc1ccc2nc(SC)n(Cc3ccccc3)c(=O)c2c1`, the “diameter of the inhibition zone (DIZ)” value in [1], in assay [3], in [4] and in assay [8] was “inactive” in each case. Further, the pIC50 was 6.10 in [9] and 6.22 in assay [7]. Moreover, the outcome in assay [2] and in assay [6] was inactive. The zone of inhibition at 200 µg/disc in assay [5] is 17 mm.

As for `C=CCn1c(SSc2nc(=O)c3cc([N+](=O)[O-])ccc3n2CC=C)nc(=O)c2cc([N+](=O)[O-])ccc21`, the “diameter of the inhibition zone (DIZ)” value in assay [1], in assay [3], in assay [4], in [5] and in [8] was “inactive” each time. Further, the result in assay [2] and in assay [6] was inactive. Further, the pIC50 in assay [7] is 5.00.

Consider `CSc1nc2ccc([N+](=O)[O-])cc2c(=O)n1Cc1ccccc1`, for which the “diameter of the inhibition zone (DIZ)” value in [1], in assay [3], in [4], in [5] and in [8] was “inactive” each time. In addition, the result in assay [2] and in assay [6] was inactive. Also, in assay [7], the pIC50 is 4.52.

Regarding `CCOC(=O)CCSc1nc2ccc([N+](=O)[O-])cc2c(=O)n1Cc1ccccc1`, the zone of inhibition at 200 µg/disc worked out at 16 mm in assay [1] (read-out: DIZ), 14 mm in [3] (read-out: DIZ) and 16 mm in assay [5]. Besides, the result in [2] and in [6] was inactive. In addition, the “diameter of the inhibition zone (DIZ)” value in [4] and in assay [8] was “inactive” each time. The pIC50 in [7] was 4.60.

Take `Cc1ccc2nc(SCc3ccccc3)n(Cc3ccccc3)c(=O)c2c1`: the “diameter of the inhibition zone (DIZ)” value in [1], in [3], in assay [4], in [5] and in assay [8] was “inactive” in each case. Moreover, the outcome in [2] and in assay [6] was inactive. The compound also showed a pIC50 in [7] of 5.00.
